Values joined by “and” are separate entries in the source; they are usually repeats but may differ in a detail not shown here. Identical values can stand only once.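 96-well plates; 48 h exposure; 5 concentrations. Endpoints by linear interpolation between flanking doses. Not reached: highest tested concentration assigned. Abbreviation: GI50, concentration required for 50% inhibition of growth. TGI is the concentration that stops growth completely.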
Assays:
Assay in all cases: NCI anticancer screen, dose series, 48 h
HCT-15 colon = tested on: HCT-15 colon
NCI-H23 lung = tested on: NCI-H23 lung
UACC-257 melanoma = tested on: UACC-257 melanoma
SNB-75 CNS = tested on: SNB-75 CNS
NCI/ADR-RES ovarian = tested on: NCI/ADR-RES ovarian
ACHN renal = tested on: ACHN renal
HS 578T breast = tested on: HS 578T breast
M14 melanoma = tested on: M14 melanoma
A549 NSCLC = tested on: A549 NSCLC
NCI-H226 lung = tested on: NCI-H226 lung
HT29 colon = tested on: HT29 colon

| Structure (SMILES) | TGI (HCT-15 colon) | TGI (NCI-H23 lung) | TGI (UACC-257 melanoma) | TGI (SNB-75 CNS) | TGI (NCI/ADR-RES ovarian) | TGI (ACHN renal) | TGI (HS 578T breast) | TGI (M14 melanoma) | TGI (A549 NSCLC) | TGI (NCI-H226 lung) | TGI (HT29 colon) | GI50 (HCT-15 colon) | GI50 (SNB-75 CNS) | GI50 (NCI/ADR-RES ovarian) | GI50 (ACHN renal) | GI50 (HS 578T breast) | GI50 (M14 melanoma) | GI50 (NCI-H226 lung) |
| --- | --- | --- | --- | --- | --- | --- | --- | --- | --- | --- | --- | --- | --- | --- | --- | --- | --- | --- |
| Clc1nc(Cl)nc(NC23CC4CC(CC(C4)C2)C3)n1 | 31.7 µM | 34.1 µM | 42.3 µM | 36.5 µM | 44.5 µM | > 57.7 µM | 28.9 µM | 33.6 µM | 38.5 µM | 44.2 µM | 37.9 µM |  |  |  |  |  |  |  |
| O=C1CC2C=CC(O)C(C1)C2 (stereo not given) | > 100 µM | > 100 µM | > 100 µM | > 100 µM | > 100 µM | > 100 µM | > 100 µM | > 100 µM |  | > 100 µM | > 100 µM |  |  |  |  |  |  |  |
| COc1ncc(C=C(C#N)C#N)c(OC)n1 | > 100 µM | > 100 µM | 57.8 µM | > 100 µM | 64.1 µM | > 100 µM | > 100 µM | 40.9 µM | > 100 µM | > 100 µM | > 100 µM |  |  |  |  |  |  |  |
| C[C@]12OC[C@H](c3ccccc3)N1C(=O)C1[C@H]2CC12SCCS2 (stereo not given in full) | > 100 µM | > 100 µM | > 100 µM | > 100 µM | > 100 µM | > 100 µM | > 100 µM | > 100 µM | > 100 µM | > 100 µM | > 100 µM |  |  |  |  |  |  |  |
| CC[C@@H]1CC[C@@H]2[C@H](CC[C@]3(C)[C@@H](O)CC[C@@H]23)[C@H]1C(=O)O | > 100 µM | > 100 µM | > 100 µM | > 100 µM | > 100 µM | > 100 µM | > 100 µM | > 100 µM | > 100 µM | > 100 µM | > 100 µM |  |  |  |  |  |  |  |
| CC(C)(C)OC(=O)NCCCCC(NC(=O)OCc1ccccc1)C(N)=O (stereo not given) | > 100 µM | > 100 µM | > 100 µM | > 100 µM | > 100 µM | > 100 µM | > 100 µM | > 100 µM | > 100 µM | > 100 µM | > 100 µM |  |  |  |  |  |  |  |
| Nc1nc(Cl)cc(NCC2(CO)CC(CCc3ccccc3)C2)n1 (stereo not given) | > 100 µM | > 100 µM | > 100 µM | > 90.2 µM | > 100 µM | > 100 µM | > 100 µM | > 100 µM | > 100 µM | > 100 µM | > 100 µM |  |  |  |  |  |  |  |
| CC(=O)C(CN1CCCCC1)C(c1ccccc1)c1c(O)c2ccccc2oc1=O (stereo not given) | > 100 µM | > 100 µM | > 100 µM | > 100 µM | > 100 µM | > 100 µM | > 100 µM | > 100 µM | > 100 µM | > 100 µM | > 100 µM |  |  |  |  |  |  |  |
| CC(C)(C)C(=O)C(CC(=O)c1ccccc1)C(=O)C(C)(C)C | > 100 µM | > 100 µM | > 100 µM | > 100 µM | > 100 µM | > 100 µM | > 100 µM | > 100 µM | > 100 µM | > 100 µM | > 100 µM |  |  |  |  |  |  |  |
| CCOC(=O)c1cc2c([N+](=O)[O-])c(NC(C)=O)ccc2s1 | > 100 µM | > 100 µM | > 100 µM | 94.1 µM | > 100 µM | > 100 µM | > 100 µM | > 100 µM | > 100 µM | 54.8 µM | > 100 µM |  |  |  |  |  |  |  |
| Cc1cn(C2CC(N)C(CN)O2)c(=O)[nH]c1=O (stereo not given) | > 100 µM | > 100 µM | > 100 µM | > 100 µM | > 100 µM | > 100 µM | > 100 µM | > 100 µM | > 100 µM | > 100 µM | > 100 µM |  |  |  |  |  |  |  |
| c1cc(-c2cnc(-c3ccc4c(c3)CCCO4)o2)ccn1 | 31.6 µM | 30.2 µM | 28.8 µM | 25.2 µM | 41.3 µM | 37.9 µM | 42.2 µM | 33 µM | 51.5 µM | 31.7 µM | 41.3 µM |  |  |  |  |  |  |  |
| Clc1cc(N/N=C(/c2ccccc2)c2ncccn2)ncn1 | > 100 µM | 58.3 µM | 64.4 µM | 74.4 µM | 50.8 µM | 22.9 µM | 66.7 µM | > 100 µM | 85.1 µM | > 100 µM | > 100 µM |  |  |  |  |  |  |  |
| COc1cc(COC(=O)N[C@H](C(=O)O)C(C)(C)C)c([N+](=O)[O-])cc1OC | > 100 µM | > 100 µM | > 100 µM | > 100 µM | > 100 µM | > 100 µM | > 100 µM | > 100 µM | > 100 µM | > 100 µM | > 100 µM |  |  |  |  |  |  |  |
| Cc1ccc(S(=O)(=O)N2CCN3C(=O)c4ccccc4C32c2ccc(F)cc2)cc1 (stereo not given) | > 100 µM | > 100 µM | > 100 µM | > 100 µM | > 100 µM | > 100 µM | > 100 µM | > 100 µM | > 100 µM | > 100 µM | > 100 µM |  |  |  |  |  |  |  |
| CCCN=C1CC(C)Nc2ccccc2N1 (stereo not given) | > 100 µM | > 100 µM | > 100 µM | > 100 µM | > 100 µM | > 100 µM | > 100 µM | > 100 µM | > 100 µM | > 100 µM | > 100 µM |  |  |  |  |  |  |  |
| CCCCc1c(O)nc(Nc2nc3ccccc3[nH]2)[nH]c1=O | > 100 µM | > 100 µM | > 100 µM | > 100 µM | > 100 µM | > 100 µM | 88 µM | > 100 µM | > 100 µM | > 100 µM | > 100 µM |  |  |  |  |  |  |  |
| CCOc1ccc(N/C(=C(/C(Cl)=C(/Cl)NCCN)[N+](=O)[O-])n2nnc3ccccc32)cc1 | 38 µM | > 100 µM | > 100 µM | > 100 µM | > 100 µM | 43.8 µM | 98.2 µM | > 100 µM | > 100 µM | > 100 µM | > 100 µM |  |  |  |  |  |  |  |
| Cc1cc2c(c(C(=O)NCCC(=O)O)c1)Oc1c(cc(C)cc1C(=O)NCCC(=O)O)S2 | > 100 µM | > 100 µM | > 100 µM | > 100 µM | > 100 µM | > 100 µM | > 100 µM | > 100 µM | > 100 µM | > 100 µM | > 100 µM |  |  |  |  |  |  |  |
| O=c1c2c3ccccc3[nH]c2c2cccc3c2n1CCC3 | > 100 µM | > 100 µM | > 100 µM | > 100 µM | > 100 µM | > 100 µM | > 100 µM | > 100 µM | > 100 µM | > 100 µM | > 100 µM |  |  |  |  |  |  |  |
| CC(C)(C)OC(=O)NC(C)(C)C(=O)NCCC(=O)O | > 100 µM | > 100 µM | > 100 µM | > 100 µM | > 100 µM | > 100 µM | > 100 µM | > 100 µM | > 100 µM | > 100 µM | > 100 µM |  |  |  |  |  |  |  |
| Cc1c(/C=N\NC(=S)N2CCN(C(=S)N/N=C\c3c(C)n(C)n(-c4ccccc4)c3=O)CC2)c(=O)n(-c2ccccc2)n1C | > 100 µM | > 100 µM | 97.3 µM | 48.7 µM | > 100 µM | > 100 µM | > 100 µM | > 100 µM | > 100 µM | > 100 µM | 34.9 µM |  |  |  |  |  |  |  |
| COc1ccc(N2C(=O)C3c4[nH]c5ccc([N+](=O)[O-])cc5c4C4CCC(C(C)(C)C)CC4C3C2=O)cc1 (stereo not given) | > 100 µM | 60.4 µM | > 100 µM | > 100 µM | > 100 µM | 63.6 µM | > 100 µM | > 100 µM | > 100 µM | 72.6 µM | 20.1 µM |  |  |  |  |  |  |  |
| CCCCCCCCCC[C@@H](O)[C@H]1CC[C@H]([C@H]2CC[C@H]([C@H](O)CCCCCCCCCC[C@@H]3CC(CC(C)=O)C(=O)O3)O2)O1 (stereo not given in full) | > 50 µM | > 50 µM | > 50 µM | > 50 µM |  | > 50 µM | > 50 µM | > 50 µM | > 50 µM | 6.56 µM and > 50 µM | > 50 µM | 7.21 µM | 3.88 µM | 0.377 µM | 0.422 µM | 8.36 µM | 5.29 µM | 1.43 µM |
| COC(=O)C1=C(C(=O)OC)C2OC1C1C2C2(C)C(C)=C(C)C1(C)S2=O (stereo not given) | 20.5 µM | 25.8 µM | 29.6 µM | 38.1 µM | > 66.5 µM | 12.9 µM | 51.4 µM | 27.7 µM | > 55.8 µM | 22.9 µM | > 49.9 µM |  |  |  |  |  |  |  |
| CC(=O)OCC1OC(N2C(=O)/C(=C\c3ccc(Cl)cc3)C(N)=Nc3ccccc32)C(OC(C)=O)C(OC(C)=O)C1OC(C)=O (stereo not given) | 59.2 µM | 68.7 µM | 66.6 µM | 74.4 µM | > 100 µM | 45.7 µM | > 100 µM | 37.4 µM | > 100 µM |  | 70.2 µM |  |  |  |  |  |  |  |
| COc1cc2c(cc1OCCCCCOc1cc3c(cc1OC)C(=O)N1CCC[C@H]1C(=O)N3)N=C[C@@H]1CCCN1C2=O | > 100 µM | 1.89 µM | 0.707 µM | 0.0588 µM | 33.1 µM | 4.05 µM | 4.17 µM | 0.521 µM | > 100 µM | 0.75 µM |  |  |  |  |  |  |  |  |
| CC(=O)NC1C(OCc2ccccc2)OC(CO)C(O)C1OCC(=O)N[C@@H](C)C(=O)N[C@H](CCC(=O)NCCNCCNc1c2ccccc2nc2cccc([N+](=O)[O-])c12)C(N)=O (stereo not given in full) | > 100 µM | 35.3 µM | 43 µM | > 100 µM | > 100 µM | 79.6 µM | > 100 µM | > 100 µM | > 100 µM |  | 72.3 µM |  |  |  |  |  |  |  |
| CCN(CC)CCn1c2cc3c(cc2c(=O)c2cccnc21)OCCO3 | > 10 µM | > 10 µM | > 10 µM | > 10 µM | > 10 µM | > 10 µM | > 10 µM | > 10 µM | > 10 µM |  | > 10 µM |  |  |  |  |  |  |  |

From PubChem BioAssay (NCI)
